In US20230015823A1, “METHODS OF ADMINISTERING VOXELOTOR” (Global Blood Therapeutics, Inc., priority 2019, published 2023):
Values after ≈ are worked out from the molar mass of the structure shown.

What was measured:
OAT1 = OAT1 (Homo sapiens, UniProt Q4U2R8); test: In vitro transporter studies: OAT1; assay type: in vitro ADME
[1] = Effect of acid reducing agent omeprazole on voxelotor; details: in vivo
OATP1A2 = OATP1A2 (Homo sapiens, UniProt P46721); test: In vitro transporter studies: OATP1A2; assay type: in vitro ADME
OATP1A2, sequence (P46721 whole entry): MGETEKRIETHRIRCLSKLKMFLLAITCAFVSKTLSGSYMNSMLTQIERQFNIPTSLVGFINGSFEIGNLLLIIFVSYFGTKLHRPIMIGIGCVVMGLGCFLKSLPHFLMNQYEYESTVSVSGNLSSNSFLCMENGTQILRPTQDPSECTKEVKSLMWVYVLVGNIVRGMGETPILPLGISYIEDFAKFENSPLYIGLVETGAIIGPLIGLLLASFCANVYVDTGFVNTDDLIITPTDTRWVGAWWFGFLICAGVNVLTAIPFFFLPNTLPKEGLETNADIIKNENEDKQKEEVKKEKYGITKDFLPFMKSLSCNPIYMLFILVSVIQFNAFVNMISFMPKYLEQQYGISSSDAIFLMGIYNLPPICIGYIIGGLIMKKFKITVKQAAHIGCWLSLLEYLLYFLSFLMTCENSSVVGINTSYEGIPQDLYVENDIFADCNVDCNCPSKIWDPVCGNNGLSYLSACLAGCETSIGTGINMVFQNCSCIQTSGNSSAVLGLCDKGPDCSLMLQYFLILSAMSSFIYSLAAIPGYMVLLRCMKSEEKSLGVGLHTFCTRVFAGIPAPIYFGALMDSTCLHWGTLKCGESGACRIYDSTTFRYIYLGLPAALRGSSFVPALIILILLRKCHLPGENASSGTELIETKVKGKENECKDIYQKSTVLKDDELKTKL

MATE2-K = MATE2-K (Homo sapiens, UniProt Q86VL8); test: In vitro transporter studies: MATE2-K; assay type: in vitro ADME
MATE2-K, sequence (Q86VL8 1-566 isoform Q86VL8-3): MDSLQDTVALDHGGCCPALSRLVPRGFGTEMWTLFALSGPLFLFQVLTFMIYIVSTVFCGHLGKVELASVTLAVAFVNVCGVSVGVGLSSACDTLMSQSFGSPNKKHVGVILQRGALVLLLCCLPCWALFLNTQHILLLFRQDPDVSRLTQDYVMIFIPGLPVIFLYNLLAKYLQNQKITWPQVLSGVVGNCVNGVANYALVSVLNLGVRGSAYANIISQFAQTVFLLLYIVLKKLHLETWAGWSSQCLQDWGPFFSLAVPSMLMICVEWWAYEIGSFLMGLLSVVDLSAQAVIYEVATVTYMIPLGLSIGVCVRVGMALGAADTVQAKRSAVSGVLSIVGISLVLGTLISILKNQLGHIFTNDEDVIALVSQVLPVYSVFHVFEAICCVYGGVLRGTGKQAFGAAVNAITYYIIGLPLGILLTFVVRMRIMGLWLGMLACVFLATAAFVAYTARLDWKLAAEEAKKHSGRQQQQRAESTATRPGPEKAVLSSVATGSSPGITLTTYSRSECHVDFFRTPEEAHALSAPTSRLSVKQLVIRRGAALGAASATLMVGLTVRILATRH

[2] = Probe substrate study in healthy subjects: voxelotor exposure and safety; assay type: in vivo, human; details: alone and in combination with caffeine, warfarin sodium, omeprazole and midazolam hydrochloride
Description: (§1) During Period 1, subjects received a single dose of caffeine 100 mg, warfarin sodium 10 mg+vitamin K 10 mg, omeprazole 20 mg, and midazolam hydrochloride 2 mg on Day 1. During Period 2, subjects received voxelotor 900 mg QD on Days 1 and 2 followed by 600 mg QD on Day 3, a single dose of caffeine 100 mg, warfarin sodium 10 mg+vitamin K 10 mg, omeprazole 20 mg, and midazolam hydrochloride 2 mg on Day 4, and voxelotor 600 mg QD on Days 4 through 7.
(§2) Whole blood and plasma concentrations of voxelotor and plasma concentrations of caffeine, paraxanthine, S-warfarin, omeprazole, 5-hydroxyomeprazole, midazolam, and 1-hydroxymidazolam were determined using validated assays.

Protein binding in vitro = assay type: in vitro ADME
Excerpt: Voxelotor apparent volume of distribution of the central compartment and peripheral compartment are 338 L and 72.2 L in plasma, respectively. Protein binding is 99.8% in vitro. The blood-to-plasma ratio is approximately 15:1 in patients with SCD.

RasH2 transgenic mice = test: 26-week carcinogenicity study; assay type: in vivo, mouse; details: 26-week study; oral doses of 30, 150, or 500 mg/kg/day
QT interval = test: Cardiac electrophysiology; assay type: in vivo; details: plasma concentrations approximately 2-fold above therapeutic concentrations
CYP2C8 = CYP2C8 (Homo sapiens, UniProt P10632)
P-gp = P-gp (Homo sapiens, UniProt P08183); test: Effect of voxelotor on P-gp: concomitant digoxin; assay type: in vivo; details: concomitant use
P-gp, sequence (P08183 whole entry): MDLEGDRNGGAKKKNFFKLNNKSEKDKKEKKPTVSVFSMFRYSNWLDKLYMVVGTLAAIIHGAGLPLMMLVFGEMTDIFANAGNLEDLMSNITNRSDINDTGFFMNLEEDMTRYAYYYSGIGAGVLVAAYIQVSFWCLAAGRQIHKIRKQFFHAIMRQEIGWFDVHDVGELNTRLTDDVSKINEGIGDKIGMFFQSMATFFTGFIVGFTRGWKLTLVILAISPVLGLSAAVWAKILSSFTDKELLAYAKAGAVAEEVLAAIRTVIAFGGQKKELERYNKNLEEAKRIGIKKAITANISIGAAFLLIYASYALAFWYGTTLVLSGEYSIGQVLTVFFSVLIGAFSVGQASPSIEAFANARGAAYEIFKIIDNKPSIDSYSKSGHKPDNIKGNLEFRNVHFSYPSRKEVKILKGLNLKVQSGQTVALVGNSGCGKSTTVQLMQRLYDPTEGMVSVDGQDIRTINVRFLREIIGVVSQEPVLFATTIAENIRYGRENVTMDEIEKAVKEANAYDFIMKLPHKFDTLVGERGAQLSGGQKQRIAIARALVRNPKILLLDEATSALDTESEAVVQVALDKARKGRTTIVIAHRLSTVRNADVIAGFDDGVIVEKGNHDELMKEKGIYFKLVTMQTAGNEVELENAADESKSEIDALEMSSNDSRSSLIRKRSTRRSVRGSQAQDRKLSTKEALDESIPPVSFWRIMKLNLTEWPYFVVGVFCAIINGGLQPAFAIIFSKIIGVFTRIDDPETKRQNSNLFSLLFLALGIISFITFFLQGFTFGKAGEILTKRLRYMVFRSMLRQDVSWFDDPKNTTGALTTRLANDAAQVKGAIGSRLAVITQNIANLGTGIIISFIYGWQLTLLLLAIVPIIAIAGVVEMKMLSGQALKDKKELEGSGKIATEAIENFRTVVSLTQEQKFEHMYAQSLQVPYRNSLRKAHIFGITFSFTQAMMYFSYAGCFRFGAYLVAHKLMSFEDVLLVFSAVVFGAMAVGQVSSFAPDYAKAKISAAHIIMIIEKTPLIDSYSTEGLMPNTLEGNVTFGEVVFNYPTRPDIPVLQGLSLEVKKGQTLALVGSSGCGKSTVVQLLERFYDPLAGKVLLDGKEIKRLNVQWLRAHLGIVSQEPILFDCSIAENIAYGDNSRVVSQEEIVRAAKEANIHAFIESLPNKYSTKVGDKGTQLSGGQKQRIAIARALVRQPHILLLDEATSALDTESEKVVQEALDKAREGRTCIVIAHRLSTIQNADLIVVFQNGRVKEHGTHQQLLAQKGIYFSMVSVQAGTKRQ

OATP1B3 = OATP1B3 (Homo sapiens, UniProt Q9NPD5); test: In vitro transporter studies: OATP1B3; assay type: in vitro ADME
OATP1B3, sequence (Q9NPD5 whole entry): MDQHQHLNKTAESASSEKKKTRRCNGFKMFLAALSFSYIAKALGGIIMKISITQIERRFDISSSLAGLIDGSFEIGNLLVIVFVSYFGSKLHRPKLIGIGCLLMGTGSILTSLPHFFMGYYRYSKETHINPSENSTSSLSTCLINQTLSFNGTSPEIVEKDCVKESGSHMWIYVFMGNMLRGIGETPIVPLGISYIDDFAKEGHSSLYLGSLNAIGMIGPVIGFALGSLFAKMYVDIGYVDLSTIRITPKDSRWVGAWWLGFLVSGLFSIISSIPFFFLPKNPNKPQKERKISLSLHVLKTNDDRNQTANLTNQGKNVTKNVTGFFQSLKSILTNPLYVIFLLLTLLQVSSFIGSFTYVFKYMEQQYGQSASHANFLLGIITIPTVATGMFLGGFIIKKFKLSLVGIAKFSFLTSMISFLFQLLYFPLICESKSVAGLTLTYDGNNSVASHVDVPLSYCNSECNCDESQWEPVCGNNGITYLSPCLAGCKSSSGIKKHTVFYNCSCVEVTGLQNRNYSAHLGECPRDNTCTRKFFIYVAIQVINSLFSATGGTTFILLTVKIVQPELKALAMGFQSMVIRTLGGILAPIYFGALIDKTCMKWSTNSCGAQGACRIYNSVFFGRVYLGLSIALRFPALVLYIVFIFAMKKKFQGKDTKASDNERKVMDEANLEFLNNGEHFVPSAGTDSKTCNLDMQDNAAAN

[3] = Clinical trials experience (HOPE trial): safety of OXBRYTA; assay type: in vivo, human
Description: The safety of OXBRYTA was evaluated in the HOPE trial based upon 88 patients who received OXBRYTA 1,500 mg and 91 patients who received placebo orally once daily [see Clinical Studies (14)]. Seventy-four patients received OXBRYTA 1,500 mg once daily for ≥24 weeks and 65 patients for ≥48 weeks.
In patients who received OXBRYTA 1,500 mg once daily the median age was 24 years (range: 12-59); 65% female; 66% Black or African American and 23% Arab/Middle Eastern; and 65% receiving hydroxyurea at baseline.

CYP3A4 [4] = target: T1, CYP3A4 (Homo sapiens, UniProt P08684); test: Effect of voxelotor on PK of CYP3A4 probe substrate midazolam in healthy subjects; details: human, in vivo
T1 sequence (P08684 whole entry): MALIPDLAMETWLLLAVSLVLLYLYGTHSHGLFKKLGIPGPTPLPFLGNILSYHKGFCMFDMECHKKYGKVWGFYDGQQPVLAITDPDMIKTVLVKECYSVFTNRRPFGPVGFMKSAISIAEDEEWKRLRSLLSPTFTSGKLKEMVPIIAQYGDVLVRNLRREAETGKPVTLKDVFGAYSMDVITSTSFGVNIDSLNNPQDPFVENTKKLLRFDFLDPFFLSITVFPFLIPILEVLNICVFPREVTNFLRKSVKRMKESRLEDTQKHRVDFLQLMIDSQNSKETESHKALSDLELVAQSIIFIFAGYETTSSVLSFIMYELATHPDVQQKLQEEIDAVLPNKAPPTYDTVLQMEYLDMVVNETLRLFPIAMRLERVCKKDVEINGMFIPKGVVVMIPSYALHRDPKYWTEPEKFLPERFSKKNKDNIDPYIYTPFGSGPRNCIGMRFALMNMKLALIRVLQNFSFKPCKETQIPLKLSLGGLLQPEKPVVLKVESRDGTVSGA
Description: as §1, §2

Hb = test: Pharmacodynamics: Hb oxygen affinity (p50) and clinical measures of hemolysis; assay type: in vivo
hemoglobin S (HbS) = hemoglobin S (HbS) (Homo sapiens, UniProt P69905); test: Mechanism of action: binding to HbS and HbS polymerization
hemoglobin S (HbS), sequence (P69905 whole entry): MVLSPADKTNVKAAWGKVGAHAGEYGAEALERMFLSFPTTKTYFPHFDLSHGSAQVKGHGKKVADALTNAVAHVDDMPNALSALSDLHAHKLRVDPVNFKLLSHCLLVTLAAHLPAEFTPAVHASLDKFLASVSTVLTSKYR
hemoglobin S (HbS), sequence (P68871 with tags, fused parts or gaps E7V partner limits assumed): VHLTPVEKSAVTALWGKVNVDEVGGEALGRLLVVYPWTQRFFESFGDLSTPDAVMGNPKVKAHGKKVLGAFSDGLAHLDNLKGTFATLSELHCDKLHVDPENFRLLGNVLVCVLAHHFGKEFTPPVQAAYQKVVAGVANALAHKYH

pregnant rats = test: Pre- and postnatal development study in pregnant rats; assay type: in vivo, rat
Description: In a pre- and postnatal development study, voxelotor was administered orally to pregnant rats at 15, 50 and 250 mg/kg/day (gestation day 6 through lactation day 20). Maternal gestational body weights were decreased at 250 mg/kg/day, which continued to the end of lactation.

rat = test: Rat Comet assay; assay type: in vivo
Excerpt: Voxelotor was not genotoxic in the reverse mutation bacterial (Ames) test, rat Comet assay, or rat micronucleus assay.

OAT3 = OAT3 (Homo sapiens, UniProt Q8TCC7); test: In vitro transporter studies: OAT3; assay type: in vitro ADME
OAT3, sequence (Q8TCC7 whole entry): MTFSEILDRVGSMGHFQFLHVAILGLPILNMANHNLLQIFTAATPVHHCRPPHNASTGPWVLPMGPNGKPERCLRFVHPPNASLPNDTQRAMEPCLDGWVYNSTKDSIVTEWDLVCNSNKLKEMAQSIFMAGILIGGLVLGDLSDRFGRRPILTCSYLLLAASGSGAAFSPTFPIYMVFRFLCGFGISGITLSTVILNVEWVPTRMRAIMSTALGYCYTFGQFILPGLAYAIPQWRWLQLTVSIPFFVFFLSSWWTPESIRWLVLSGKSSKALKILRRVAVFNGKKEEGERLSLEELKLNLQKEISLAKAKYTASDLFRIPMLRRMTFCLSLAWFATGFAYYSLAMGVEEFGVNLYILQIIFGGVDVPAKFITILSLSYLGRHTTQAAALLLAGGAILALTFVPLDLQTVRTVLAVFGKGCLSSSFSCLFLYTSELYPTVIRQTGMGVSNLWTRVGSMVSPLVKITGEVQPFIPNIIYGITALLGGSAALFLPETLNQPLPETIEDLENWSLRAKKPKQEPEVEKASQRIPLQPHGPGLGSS

[5] = PK in specific populations (age, sex, body weight, pediatric, renal impairment); assay type: in vivo, human
Description: The pharmacokinetic parameters of voxelotor were similar in pediatric patients 12 to <17 years and adults.
Following a single 900 mg dose of voxelotor, whole blood exposures in subjects with severe renal impairment (eGFR<30 mL/min/1.73 m^2) were 25% lower compared to healthy controls.
OXBRYTA has not been evaluated in patients with end stage renal disease requiring dialysis.

rats = test: Fertility and early embryonic development study; assay type: in vivo, rat
Description: In a fertility and early embryonic development study, voxelotor was administered orally to rats at 15, 50, and 250 mg/kg/day. Males were dosed 28 days prior to mating through cohabitation and females were dosed 14 days prior to mating through gestation Day 7.

CYP3A4 [6] = target: T1, CYP3A4; test: Metabolism (in vitro and in vivo studies); assay type: in vitro ADME; details: minor contribution from CYP2C19, CYP2B6 and CYP2C9
Excerpt: In vitro and in vivo studies indicate that voxelotor is extensively metabolized through Phase I (oxidation and reduction), Phase II (glucuronidation) and combinations of Phase I and II metabolism.

[7] = Drug substance properties (solubility, hygroscopicity); assay type: physicochemical; details: crystalline Form II free base
Excerpt: Voxelotor, the active drug substance, is a white-to-yellow-to-beige compound in crystalline Form II of its free base. It is non-hygroscopic.

CC(C)n1nccc1-c1ncccc1COc1cccc(O)c1C=O [voxelotor, 2-hydroxy-6-((2-(1-isopropyl-1H-pyrazol-5-yl)pyridin-3-yl)methoxy)benzaldehyde]
inhibition of OAT1 (OAT1): not an inhibitor
effect of co-administered omeprazole (proton pump inhibitor) on voxelotor exposure [1]: did not alter voxelotor exposure
substrate of OATP1A2 (OATP1A2): not a substrate
inhibition of MATE2-K (MATE2-K): not an inhibitor
safety and tolerability [2]: safe and well tolerated
fraction unbound (Protein binding in vitro): 0.002
carcinogenicity (RasH2 transgenic mice): not carcinogenic
QT interval prolongation (QT interval): does not prolong QT interval to any clinically relevant extent
inhibition of CYP2C8 in vivo (CYP2C8): not
effect on digoxin (a P-gp substrate) (P-gp): did not alter digoxin to a clinically relevant extent
inhibition of OATP1B3 (OATP1B3): not an inhibitor
substrate of OATP1B3 (OATP1B3): not a substrate
Adverse reaction: Abdominal Pain (grouped PTs) ([3]; HOPE, 1,500 mg (N = 88)): 17 (19%) n (%)
Adverse reaction: Diarrhea ([3]; HOPE, 1,500 mg (N = 88)): 18 (20%) n (%)
Adverse reaction: Fatigue ([3]; HOPE, 1,500 mg (N = 88)): 12 (14%) n (%)
Adverse reaction: Headache ([3]; HOPE, 1,500 mg (N = 88)): 23 (26%) n (%)
Adverse reaction: Nausea ([3]; HOPE, 1,500 mg (N = 88)): 15 (17%) n (%)
Adverse reaction: Pyrexia ([3]; HOPE, 1,500 mg (N = 88)): 11 (12%) n (%)
Adverse reaction: Rash (grouped PTs) ([3]; HOPE, 1,500 mg (N = 88)): 12 (14%) n (%)
patients with serious adverse reactions ([3]; HOPE, 1,500 mg once daily, 3/88): 3%
permanent discontinuation due to an adverse reaction (Grades 1-4) ([3]; HOPE, 1,500 mg once daily, 4/88): 5%
dosage modifications (dose reduction or dosing interruption) due to an adverse reaction ([3]; HOPE, 36/88): 41%
patients with serious hypersensitivity reactions ([3]; patients treated): < 1%
inhibition of CYP3A4 in vivo (CYP3A4 [4]): inhibits
clinical measures of hemolysis (indirect bilirubin and % reticulocytes) (Hb; in vivo): dose-dependent reduction
Hb oxygen affinity as determined by the change in p50 (Hb; linearly correlated with voxelotor exposure): dose-dependent increase in Hb oxygen affinity
inhibition of HbS polymerization (hemoglobin S (HbS)): dose-dependent inhibition of HbS polymerization
findings in offspring (pregnant rats; maternal dose 250 mg/kg/day, throughout lactation, weaning and maturation): reduced survival and reduced body weights
maternal gestational body weights (pregnant rats; pregnant rats, 250 mg/kg/day oral, gestation day 6 through lactation day 20): decreased
exposure at 250 mg/kg/day relative to exposure in patients at the recommended dose (pregnant rats; rats, maternal dose 250 mg/kg/day): approximately 2.8 times
genotoxicity (rat): not genotoxic
inhibition of OAT3 (OAT3): not an inhibitor
differences in pharmacokinetics based on age (12 to 59 years), sex, body weight (28 to 135 kg), or mild to severe renal impairment (CLcr 15-89 mL/min) ([5]; in vivo): No clinically significant differences
effect of renal function on the excretion of voxelotor ([5]; in vivo): no clinically significant effect
pharmacokinetic parameters in pediatric patients 12 to <17 years vs adults ([5]; in vivo): similar
whole blood exposures lower compared to healthy controls ([5]; severe renal impairment (eGFR<30 mL/min/1.73 m^2), single 900 mg dose): 25%
unbound plasma concentrations vs healthy controls ([5]; severe renal impairment, single 900 mg dose): comparable
exposure at 250 mg/kg/day relative to human exposure at 1,500 mg/day (rats): approximately 5 times
sperm motility (rats; 250 mg/kg/day, changes in sperm morphology also occurred): decreased
effect on fertility or reproductive function (rats; oral 15, 50, 250 mg/kg/day): no effect on fertility or reproductive function
enzymes mediating oxidation of voxelotor (CYP3A4 [6]): mediated primarily by CYP3A4
hygroscopicity [7]: non-hygroscopic
solubility in common organic solvents such as acetone and toluene [7]: highly soluble
solubility ([7]; water): ~30 µg/mL (≈ 88.9 µM)
